Measured values as given in article PMC6266505, “Limonoids Containing a C1–O–C29 Moiety: Isolation, Structural Modification, and Antiviral Activity” (Marine Drugs, 2018).
Like-named read-outs stand apart in the source and are kept apart here.

How the values were obtained:
[1] = system: influenza A virus (IAV); settings: cited from earlier work
[2] = system: IAV; test: Anti-IAV bioassay; type: cell-based; settings: Influenza A virus, read-out: Inhibition Rate (%) against IAV, positive control
[3] = system: HIV-1; settings: read-out: IC50 against HIV-1; cited from earlier work
[4] = cited from earlier work
[5] = in vitro; settings: human
[6] = system: HIV-1; test: microbe, parasite or virus in culture

Q: For COC(=O)C[C@H]1[C@@]2(C)C[C@]3(O)[C@H](C(=O)[C@H]2OC(C)=O)C2=C4CC(=O)O[C@@H](c5ccoc5)[C@]4(C)CC[C@@H]2[C@]13C [thaixylomolin K], which “antiviral activity against influenza A virus (IAV), in words” value [1] is on record?
A: The value was “moderate antiviral activity”.

Q: With COC(=O)C[C@H]1[C@@]2(C)C[C@]3(O)[C@H](C(=O)[C@H]2OC(C)=O)C2=C(CC[C@]4(C)C2=CC(=O)O[C@H]4c2ccoc2)[C@]13C [thaixylomolin M] as the molecule, how does the “antiviral activity against influenza A virus (IAV), in words” value [1] read?
A: Its value is “moderate antiviral activity”.

Q: Which inhibition at 60 µM [2] does the source give for NC(=O)c1ncn([C@@H]2O[C@H](CO)[C@@H](O)[C@H]2O)n1 [ribavirin] here?
A: The inhibition at 60 µM was 87.5 ± 2.86%.

Q: What does the source list for COC(=O)C[C@@H]1[C@@]2(C)[C@H]3CC[C@]4(C)C(=C3[C@@]3(O)[C@@H](OC(C)=O)C(=O)[C@]1(C)C[C@@]23O)CC(=O)O[C@H]4c1ccoc1 [thaixylomolin I]?
A: antiviral activity against influenza A virus (IAV), in words [1]: moderate antiviral activity; IC50 ([1]; read-out: IC50 against IAV): 77.1 ± 8.7 µM

Q: For CC[C@H](C)C(=O)O[C@@H]1C(=O)[C@@]2(OC(=O)C(C)C)[C@@]3(O)C[C@@]1(C)[C@H](CC(=O)OC)[C@@]3(C)[C@H]1CC[C@@]3(C)[C@H](c4ccoc4)OC(=O)C[C@]34O[C@]142 [Krishnolide A], which IC50 [3] is on record?
A: The IC50 was 17.4 ± 1.65 µM.

Q: What about the CC50 [4] of the same molecule?
A: Its CC50 is 78.5 ± 1.69 µM.

Q: Which CC50 [5] does the source give for C/C=C(\C)C(=O)O[C@@H]1[C@@H]2C=C3[C@@H]4CC(=O)O[C@@H](c5ccoc5)[C@]4(C)CC[C@@H]3[C@]3(C)[C@@H](CC(=O)OC)[C@]1(C)CO[C@]23O [Compound 6, granatumin L] here?
A: The CC50 was over 100 µM.

Q: What about the IC50 ([6]; Human immunodeficiency virus 1, SUP-T1, read-out: IC50 Value (μM) against HIV-1) of the same molecule?
A: Its IC50 is 19.23 ± 0.12 µM.

Q: What about the inhibition at 20 µM ([6]; Human immunodeficiency virus 1, SUP-T1, read-out: Inhibition Rate (20.0 μM) (%) against HIV-1) of the same molecule?
A: Its inhibition at 20 µM is 67.1 ± 3.04%.
